IC50 data for 25 compounds are collected here from patent US9233965B2, “3,4-dihydropyrrolo[1,2-A]pyrazine-2,8(1H)-dicarboxamide derivatives, preparation thereof and therapeutic use thereof for diseases involving casein kinase 1 epsilon and/or casein kinase 1 delta” (SANOFI, priority 2010, dated 2016).

Structures are written as SMILES. pIC50: −log10 of the molar value.

Sequence of casein kinase 1 epsilon (CK1 epsilon) (P49674 whole entry): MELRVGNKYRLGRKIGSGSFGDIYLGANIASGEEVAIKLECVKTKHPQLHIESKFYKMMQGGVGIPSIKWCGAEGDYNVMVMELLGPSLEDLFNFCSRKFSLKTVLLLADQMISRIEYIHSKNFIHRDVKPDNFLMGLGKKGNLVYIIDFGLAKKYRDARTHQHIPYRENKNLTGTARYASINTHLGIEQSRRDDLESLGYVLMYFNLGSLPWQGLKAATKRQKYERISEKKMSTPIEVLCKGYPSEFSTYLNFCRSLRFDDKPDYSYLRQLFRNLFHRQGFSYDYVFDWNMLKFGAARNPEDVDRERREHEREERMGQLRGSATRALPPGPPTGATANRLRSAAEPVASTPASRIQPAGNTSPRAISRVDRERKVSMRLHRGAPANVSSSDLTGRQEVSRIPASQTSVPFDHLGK

This test has as its target casein kinase 1 epsilon (CK1 epsilon) (Homo sapiens (Human), UniProt P49674). Put plainly: Test A: inhibitory activity on CK1 epsilon, casein phosphorylation assay on ATP-33P filter plate. Type of test: biochemical. The settings on record: IC50 values or IC50 ranges (result of several experiments), ATP 10 μM final. As to the method: The capacity of the compounds of the invention to inhibit the phosphorylation of casein by casein kinase 1 epsilon and/or delta may be evaluated according to the procedures described in document US 2005/0 131 012.
Test A: Inhibitory Activity on CK1 Epsilon Measured by Assay on an ATP-^33P Filter Plate
The effect of the compounds on inhibition of the phosphorylation of casein by the enzyme casein kinase 1 epsilon (CK1 epsilon) is measured, using a casein assay via filtration of ATP-^33P in vitro.
Casein kinase 1 epsilon (0.58 mg/ml) is obtained via fermentation and purification processes performed according to methods that are well known to those skilled in the art, or may also be obtained from Invitrogen Corporation™ (human CK1 epsilon).
The compounds are tested at five different concentrations so as to generate IC50 values, i.e. the concentration at which a compound is capable of inhibiting the enzymatic activity by 50%, or alternatively the percentage of inhibition at a concentration of 10 micromolar.
“U”-bottomed Falcon plates are prepared by placing 5 μL of solutions of the compounds according to the invention at concentrations of 10, 1, 0.1, 0.01 or 0.001 μM in different wells. The solutions of the compounds according to the invention at these various concentrations are prepared by diluting in a test buffer (Tris 50 mM pH 7.5, MgCl2 […], DTT 2 mM and EGTA 1 mM) a stock solution in DMSO at a concentration of 10 mM. Next, 5 μL of dephosphorylated casein are added to a final concentration of 0.2 μg/μL, 20 μL of CK1 epsilon to a final concentration of 3 ng/μL, and 20 μL of ATP-^33P to a final concentration of 0.02 μCi/μL mixed with cold ATP (10 μM final—approximately 2×10^6 CPM per well). The final total test volume per well is equal to 50 μL.
The “U”-bottomed Falcon® test plate mentioned above is vortexed, and then incubated at room temperature for 2 hours. After 2 hours the reaction is stopped by adding an ice-cold solution of 65 μL of cold ATP (2 mM) prepared in test buffer.
100 μL of the reaction mixture are then transferred from the “U”-bottomed Falcon® plate into Millipore® MAPH filter plates, preimpregnated with 25 μL of ice-cold 100% TCA.
The Millipore MAPH filter plates are agitated gently and are left to stand at room temperature for at least 30 minutes to precipitate the proteins.
After 30 minutes, the filter plates are sequentially washed and filtered with 2×150 μL of 20% TCA, 2×150 μL of 10% TCA and 2×150 μL of 5% TCA (6 washes in total per plate/900 μL per well).
The plates are left to dry overnight at room temperature. Next, 40 μL of Microscint-20 Packard® scintillation liquid are added per well and the plates are closed in a leaktight manner. The radiation emitted by each well is then measured for 2 minutes in a TopCount NXT Packard® scintillation counter, in which the values of CPM/well are measured.
The percentage inhibition of the capacity of the enzyme to phosphorylate the substrate (casein) is determined for each concentration of test compound. These inhibition data expressed as percentages are used to calculate the IC50 value for each compound compared with the controls.
The kinetic studies determined the KM value for ATP as being 21 μM in this test system.
Table 2 below gives the IC50 values or the IC50 inhibition ranges (result of several experiments) for the phosphorylation of Casein Kinase 1 Epsilon for a number of compounds according to the invention.
As a reminder, the pIC50 is −log10 of the IC50, conventionally taken in molar units. A higher pIC50 goes with a small IC50. The compound `CC(C)(C)NC(=O)N1CCn2cc(-c3ccccc3)c(C(N)=O)c2C1` [Compound 1, N^2-tert-butyl-7-phenyl-3,4-dihydropyrrolo[1,2-a]pyrazine-2,8(1H)-dicarboxamide] had a pIC50 of 7.46 to 7.92. The same measure for `COc1ccc(-c2c(C(N)=O)c3n(c2C)CCN(C(=O)NC(C)(C)C)C3)cc1` [Compound 4, N^2-tert-butyl-7-(4-methoxyphenyl)-6-methyl-3,4-dihydropyrrolo[1,2-a]pyrazine-2,8(1H)-dicarboxamide]: 8.52 to 9.00. The value for `Cc1c(-c2ccc(Oc3ccccc3)cc2)c(C(N)=O)c2n1CCN(C(=O)NC(C)(C)C)C2` [Compound 5, N^2-tert-butyl-6-methyl-7-(4-phenoxyphenyl)-3,4-dihydropyrrolo[1,2-a]pyrazine-2,8(1H)-dicarboxamide] was 7.11 to 7.47. The same measure for `COc1ccc(-c2c(C(N)=O)c3n(c2C2CC2)CCN(C(=O)NC2CC2)C3)cc1` [Compound 6, N^2-6-di-cyclo-propyl-7-(4-methoxyphenyl)-3,4-dihydropyrrolo[1,2-a]pyrazine-2,8(1H)-dicarboxamide]: 7.24 to 7.55.

Turning to `CC(C)NC(=O)N1CCn2c(c(C(N)=O)c(-c3ccccc3)c2C2CC2)C1` [Compound 7, 6-cyclo-propyl-7-phenyl-N^2-(iso-propyl)-3,4-dihydropyrrolo[1,2-a]pyrazine-2,8(1H)-dicarboxamide], the pIC50 was 7.38. The value for `COc1ccc(-c2c(C(N)=O)c3n(c2C2CC2)CCN(C(=O)NC(C)C)C3)cc1` [Compound 8, 6-cyclo-propyl-7-(4-methoxyphenyl)-N^2-(iso-propyl)-3,4-dihydropyrrolo[1,2-a]pyrazine-2,8(1H)-dicarboxamide] was 6.56 to 6.66; that for `CC(C)CNC(=O)N1CCn2c(c(C(N)=O)c(-c3ccccc3)c2C2CC2)C1` [Compound 9, 6-cyclo-propyl-7-phenyl-N^2-(iso-butyl)-3,4-dihydropyrrolo[1,2-a]pyrazine-2,8(1H)-dicarboxamide] was 7.31; that for `Cc1cccc(-c2c(C(N)=O)c3n(c2C2CC2)CCN(C(=O)NC(C)(C)C)C3)c1` [Compound 11, N^2-tert-butyl-6-cyclo-propyl-7-(3-methylphenyl)-3,4-dihydropyrrolo[1,2-a]pyrazine-2,8(1H)-dicarboxamide] was 8.22 to 8.52.

`Cc1ccc(-c2c(C(N)=O)c3n(c2C2CC2)CCN(C(=O)NC(C)(C)C)C3)cc1` [Compound 12, N^2-tert-butyl-6-cyclo-propyl-7-(4-methylphenyl)-3,4-dihydropyrrolo[1,2-a]pyrazine-2,8(1H)-dicarboxamide] showed a pIC50 of 7.92. Take `CC(C)c1ccc(-c2c(C(N)=O)c3n(c2C2CC2)CCN(C(=O)NC(C)(C)C)C3)cc1` [Compound 13, N^2-tert-butyl-6-cyclo-propyl-7-[4-(iso-propyl)phenyl]-3,4-dihydropyrrolo[1,2-a]pyrazine-2,8(1H)-dicarboxamide]: the pIC50 was 6.00 to 6.35. Regarding `CC(C)(C)NC(=O)N1CCn2c(c(C(N)=O)c(-c3ccc(C4CCCCC4)cc3)c2C2CC2)C1` [Compound 14, N^2-tert-butyl-7-(4-cyclo-hexylphenyl)-6-cyclo-propyl-3,4-dihydropyrrolo[1,2-a]pyrazine-2,8(1H)-dicarboxamide], the pIC50 is 5.96 to 6.87. The value for `CC(C)(C)NC(=O)N1CCn2c(c(C(N)=O)c(-c3ccc(-c4ccccc4)cc3)c2C2CC2)C1` [Compound 15, 7-(biphenyl-4-yl)-N^2-tert-butyl-6-cyclo-propyl-3,4-dihydropyrrolo[1,2-a]pyrazine-2,8(1H)-dicarboxamide] was 8.40 to 8.70; that for `CC(C)(C)NC(=O)N1CCn2c(c(C(N)=O)c(-c3cccc(C(F)(F)F)c3)c2C2CC2)C1` [Compound 16, N^2-tert-butyl-6-cyclo-propyl-7-[3-(trifluoromethyl)phenyl]-3,4-dihydropyrrolo[1,2-a]pyrazine-2,8(1H)-dicarboxamide] was 7.24 to 7.72; that for `CN(C)C(=O)c1cccc(-c2c(C(N)=O)c3n(c2C2CC2)CCN(C(=O)NC(C)(C)C)C3)c1` [Compound 17, N^2-tert-butyl-6-cyclo-propyl-7-[3-(dimethylcarbamoyl)phenyl]-3,4-dihydropyrrolo[1,2-a]pyrazine-2,8(1H)-dicarboxamide] was 6.02. The same measure for `CC(C)(C)NC(=O)N1CCn2c(c(C(N)=O)c(-c3ccc(C(=O)NC4CC4)cc3)c2C2CC2)C1` [Compound 18, N^2-tert-butyl-6-cyclo-propyl-7-[4-(cyclo-propylcarbamoyl)phenyl]-3,4-dihydropyrrolo[1,2-a]pyrazine-2,8(1H)-dicarboxamide]: 6.02; for `CC(C)(C)NC(=O)N1CCn2c(c(C(N)=O)c(-c3ccc(C(=O)N4CCCC4)cc3)c2C2CC2)C1` [Compound 19, N^2-tert-butyl-6-cyclo-propyl-7-[4-(pyrrolidin-1-ylcarbonyl)phenyl]-3,4-dihydropyrrolo[1,2-a]pyrazine-2,8(1H)-dicarboxamide]: 6.23; for `CON(C)C(=O)c1ccc(-c2c(C(N)=O)c3n(c2C2CC2)CCN(C(=O)NC(C)(C)C)C3)cc1` [Compound 20, N^2-tert-butyl-6-cyclo-propyl-7-{4-[methoxy(methyl)carbamoyl]phenyl}-3,4-dihydropyrrolo[1,2-a]pyrazine-2,8(1H)-dicarboxamide]: 6.21.

In turn, `CC(C)(C)NC(=O)N1CCn2c(c(C(N)=O)c(-c3cccc(C#N)c3)c2C2CC2)C1` [Compound 21, N^2-tert-butyl-7-(3-cyanophenyl)-6-cyclo-propyl-3,4-dihydropyrrolo[1,2-a]pyrazine-2,8(1H)-dicarboxamide] showed a pIC50 of 7.34 to 7.59. The value for `CC(C)(C)NC(=O)N1CCn2c(c(C(N)=O)c(-c3ccc(C#N)cc3)c2C2CC2)C1` [Compound 22, N^2-tert-butyl-7-(4-cyanophenyl)-6-cyclo-propyl-3,4-dihydropyrrolo[1,2-a]pyrazine-2,8(1H)-dicarboxamide] was 7.60. As to `Cc1nnc(-c2ccc(-c3c(C(N)=O)c4n(c3C3CC3)CCN(C(=O)NC(C)(C)C)C4)cc2)o1` [Compound 23, N^2-tert-butyl-6-cyclo-propyl-7-[4-(5-methyl-1,3,4-oxadiazol-2-yl)phenyl]-3,4-dihydropyrrolo[1,2-a]pyrazine-2,8(1H)-dicarboxamide], the pIC50 was 7.19. In the case of `CC(C)(C)NC(=O)N1CCn2c(c(C(N)=O)c(-c3ccc(C(F)(F)F)cc3)c2C2CC2)C1` [Compound 24, N^2-tert-butyl-6-cyclo-propyl-7-[4-(trifluoromethyl)phenyl]-3,4-dihydropyrrolo[1,2-a]pyrazine-2,8(1H)-dicarboxamide], the pIC50 was 7.08. The value for `CN(C)S(=O)(=O)Nc1cccc(-c2c(C(N)=O)c3n(c2C2CC2)CCN(C(=O)NC(C)(C)C)C3)c1` [Compound 26, N^2-tert-butyl-6-cyclo-propyl-7-{3-[(dimethylsulfamoyl)amino]phenyl}-3,4-dihydropyrrolo[1,2-a]pyrazine-2,8(1H)-dicarboxamide] was 6.28. The same measure for `CC(C)(C)NC(=O)N1CCn2c(c(C(N)=O)c(-c3cccc(-n4cccn4)c3)c2C2CC2)C1` [Compound 27, N^2-tert-butyl-6-cyclo-propyl-7-[3-(1H-pyrazol-1-yl)phenyl]-3,4-dihydropyrrolo[1,2-a]pyrazine-2,8(1H)-dicarboxamide]: 7.64; for `CN(C)c1ccc(-c2c(C(N)=O)c3n(c2C2CC2)CCN(C(=O)NC(C)(C)C)C3)cc1` [Compound 28, N^2-tert-butyl-6-cyclo-propyl-7-[4-(dimethylamino)phenyl]-3,4-dihydropyrrolo[1,2-a]pyrazine-2,8(1H)-dicarboxamide]: 8.40; for `CC(C)(C)NC(=O)N1CCn2c(c(C(N)=O)c(-c3ccc(NS(C)(=O)=O)cc3)c2C2CC2)C1` [Compound 29, N^2-tert-butyl-6-cyclo-propyl-7-{4-[(methylsulfonyl)amino]phenyl}-3,4-dihydropyrrolo[1,2-a]pyrazine-2,8(1H)-dicarboxamide]: 6.27.
